Data on three compounds can be found in ChEMBL document CHEMBL1144092, “5-Oxonoraporphines from Mitrephora cf. maingayi” (1999).

≈ marks a conversion by molar mass, not a printed value. Calls of active or inactive are those of the source. No cut-off for these calls is given here.

In one test the test system is Aedes aegypti. Kind of test: Larvicidal activity against Aedes aegypti larvae. It counts as functional.
The subject of the next test is P388. Kind of test: Cytotoxicity against mouse P388 cells. In kind it is functional. Particulars: P388, read-out: ED50.

Turning to `COc1c(O)c2c3c(c1OC)-c1ccccc1C[C@H]3NC(=O)C2`, in the test with Aedes aegypti, the outcome was inactive. In addition, in the test on P388, the EC50 was greater than 30 µg/mL.
With `COc1c(OC)c(OC)c2c3c(cc4ccccc42)NC(=O)C(=O)c13` [OUREGIDIONE], the LC50 in the test with Aedes aegypti amounted to 10000 µg/mL (≈ 29.6 mM).
For `COc1c2c3c(c(OC)c1OC)-c1ccccc1C[C@H]3NC(=O)C2`, in the test with Aedes aegypti, the outcome was inactive. Besides, in the test on P388, the EC50 was greater than 30 µg/mL.

By LC50 is commonly meant the concentration that kills 50% of the test population. A low value points to a more lethal substance.
